The values below come from US10800792B2, “Inhibitors of Bruton's tyrosine kinase and method of their use” (JANSSEN PHARMACEUTICA NV, priority 2015, dated 2020).

The test deals with unphosphorylated-BTK kinase domain (UP-BTK), GST-tagged human BTK (389-659aa) (Homo sapiens (Human), UniProt Q06187). As to the kind of experiment: BTK kinase Lanthascreen binding assay. Conditions: pIC50 = negative log of the IC50 in molar, 60 minutes incubation, 50 nM Tracer 236; for IC50: read-out: BTK_I_binding pIC50 (converted). As to the method: BTK Kinase Lanthascreen Binding Assay:
A BTK kinase lanthascreen binding assay monitors compound binding to unphosphorylated-BTK kinase domain (UP-BTK), by competing with a fluorescent labeled tracer. […] Data were analyzed using Xlfit™ version 5.3 from ID Business Solutions (Guildford), Microsoft Excel add-in. pIC50 refers to the negative log of the IC50 in molar
On the technique in general: TR-FRET usually uses a lanthanide donor and a delayed reading to cut background.

unphosphorylated-BTK kinase domain (UP-BTK), GST-tagged human BTK (389-659aa), sequence (Q06187 389-659): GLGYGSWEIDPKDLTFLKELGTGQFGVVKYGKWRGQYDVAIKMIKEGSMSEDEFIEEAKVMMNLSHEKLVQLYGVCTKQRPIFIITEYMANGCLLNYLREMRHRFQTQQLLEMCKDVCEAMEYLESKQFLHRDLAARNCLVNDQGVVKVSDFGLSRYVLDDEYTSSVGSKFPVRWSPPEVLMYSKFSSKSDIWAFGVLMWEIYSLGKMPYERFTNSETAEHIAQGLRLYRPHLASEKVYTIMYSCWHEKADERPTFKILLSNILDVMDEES

For `C=CC(=O)N1CC[C@@H](NC(=O)c2sc3nccc4c3c2NC(=O)N4c2ccc(Oc3ccccc3)cc2C)C1` (single isomer, unassigned) [Example 5, (R)—N-(1-Acryloylpyrrolidin-3-yl)-5-(*S)-(2-methyl-4-phenoxyphenyl)-4-oxo-4,5-dihydro-3H-1-thia-3,5,8-triazaacenaphthylene-2-carboxamide], the “BTK_I_binding pIC50” value turned out to be 8.1.

`C=CC(=O)N1C[C@@H](F)[C@@H](NC(=O)c2sc3nccc4c3c2NC(=O)N4c2ccc(Oc3ccccc3)cc2C)C1` (single isomer, unassigned) [Example 28, N-((3S,4R)-1-Acryloyl-4-fluoropyrrolidin-3-yl)-5-(*S)-(2-methyl-4-phenoxyphenyl)-4-oxo-4,5-dihydro-3H-1-thia-3,5,8-triazaacenaphthylene-2-carboxamide]: the IC50 is 12.6 nM.

Regarding `Cc1cc(Oc2ccccc2)ccc1N1C(=O)Nc2c(C(=O)N[C@@H]3CCCN(C#N)C3)sc3nccc1c23` (single isomer, unassigned) [Example 35, (R)—N-(1-Cyanopiperidin-3-yl)-5-(*S)-(2-methyl-4-phenoxyphenyl)-4-oxo-4,5-dihydro-3H-1-thia-3,5,8-triazaacenaphthylene-2-carboxamide], the IC50 was 31.6 nM.

As to `Cc1cc(Oc2ccccc2)ccc1N1C(=O)Nc2c(C(=O)N[C@@H]3CCCN(C(=O)/C(C#N)=C/C(C)(C)N4CCOCC4)C3)sc3nccc1c23` (single isomer, unassigned) [Example 43, (R,E)-N-(1-(2-Cyano-4-methyl-4-morpholinopent-2-enoyl)piperidin-3-yl)-5-(*S)-(2-methyl-4-phenoxyphenyl)-4-oxo-4,5-dihydro-3H-1-thia-3,5,8-triazaacenaphthylene-2-carboxamide], the “BTK_I_binding pIC50” value was 7.2.

For `C#CC(=O)N1CCC[C@@H](NC(=O)c2sc3nccc4c3c2NC(=O)N4c2ccc(Oc3ccccc3)cc2C)C1` (single isomer, unassigned) [Example 46, (R)-5-(*S)-(2-methyl-4-phenoxyphenyl)-4-oxo-N-(1-propioloylpiperidin-3-yl)-4,5-dihydro-3H-1-thia-3,5,8-triazaacenaphthylene-2-carboxamide], the “BTK_I_binding pIC50” value amounted to 7.9.

As for `C=C(F)C(=O)N1CCC[C@@H](NC(=O)c2sc3nccc4c3c2NC(=O)N4c2ccc(Oc3ccccc3)cc2C)C1` (single isomer, unassigned) [Example 49, (R)—N-(1-(2-Fluoroacryloyl)piperidin-3-yl)-5-(*S)-(2-methyl-4-phenoxyphenyl)-4-oxo-4,5-dihydro-3H-1-thia-3,5,8-triazaacenaphthylene-2-carboxamide], the “BTK_I_binding pIC50” value stood at 7.2.

With `CC#CC(=O)N1CCC[C@@H](NC(=O)c2sc3nccc4c3c2NC(=O)N4c2ccc(Oc3ccccc3)cc2C)C1` (single isomer, unassigned) [Example 55, (R)—N-(1-(But-2-ynoyl)piperidin-3-yl)-5-(*S)-(2-methyl-4-phenoxyphenyl)-4-oxo-4,5-dihydro-3H-1-thia-3,5,8-triazaacenaphthylene-2-carboxamide], the “BTK_I_binding pIC50” value is given as 7.4.

With `Cc1cc(Oc2ccccc2)ccc1N1C(=O)Nc2c(C(=O)N[C@H]3CCOC3)sc3nccc1c23` (single isomer, unassigned) [Example 68, (S)-5-(*S)-(2-Methyl-4-phenoxyphenyl)-4-oxo-N-(tetrahydrofuran-3-yl)-4,5-dihydro-3H-1-thia-3,5,8-triazaacenaphthylene-2-carboxamide], the “BTK_I_binding pIC50” value is on record as 7.7.

On to `Cc1cc(Oc2ccccc2)ccc1N1C(=O)Nc2c(C(=O)N[C@@H]3CCOC3)sc3nccc1c23` (single isomer, unassigned) [Example 80, (R)-5-(*S)-(2-Methyl-4-phenoxyphenyl)-4-oxo-N-(tetrahydrofuran-3-yl)-4,5-dihydro-3H-1-thia-3,5,8-triazaacenaphthylene-2-carboxamide], for which the “BTK_I_binding pIC50” value is given as 7.8.

In the case of `CCC(=O)N1CC[C@@H](NC(=O)c2sc3nccc4c3c2NC(=O)N4c2ccc(Oc3ccccc3)cc2C)C1` (single isomer, unassigned) [Example 84, (R)-5-(*S)-(2-Methyl-4-phenoxyphenyl)-4-oxo-N-(1-propionylpyrrolidin-3-yl)-4,5-dihydro-3H-1-thia-3,5,8-triazaacenaphthylene-2-carboxamide], the “BTK_I_binding pIC50” value came out at 7.5.

Turning to `Cc1cc(Oc2ccccc2)ccc1N1C(=O)Nc2c(C(=O)N[C@@H]3CCN(C(C)C)C3)sc3nccc1c23` (single isomer, unassigned) [Example 93, (R)—N-(1-Isopropylpyrrolidin-3-yl)-5-(*S)-(2-methyl-4-phenoxyphenyl)-4-oxo-4,5-dihydro-3H-1-thia-3,5,8-triazaacenaphthylene-2-carboxamide], the “BTK_I_binding pIC50” value amounted to 7.1.

For the molecule `Cc1cc(Oc2ccccc2)ccc1N1C(=O)Nc2c(C(=O)N[C@@H]3CCCNC3)sc3nccc1c23` (single isomer, unassigned) [Example 98, (R)-5-(*S)-(2-Methyl-4-phenoxyphenyl)-4-oxo-N-(piperidin-3-yl)-4,5-dihydro-3H-1-thia-3,5,8-triazaacenaphthylene-2-carboxamide], the “BTK_I_binding pIC50” value was found to be 7.3.

For `Cc1cc(Oc2ccccc2)ccc1N1C(=O)Nc2c(C(=O)N[C@@H]3CCCN(C(=O)CCO)C3)sc3nccc1c23` (single isomer, unassigned) [Example 99, (R)—N-(1-(3-Hydroxypropanoyl)piperidin-3-yl)-5-(*S)-(2-methyl-4-phenoxyphenyl)-4-oxo-4,5-dihydro-3H-1-thia-3,5,8-triazaacenaphthylene-2-carboxamide], the “BTK_I_binding pIC50” value is on record as 7.6.

Regarding `C/C=C/C(=O)N1CCC[C@@H](NC(=O)c2sc3nccc4c3c2NC(=O)N4c2ccc(Oc3ccccc3)cc2C)C1` (single isomer, unassigned) [Example 100, (R,E)-N-(1-(But-2-enoyl)piperidin-3-yl)-5-(*S)-(2-methyl-4-phenoxyphenyl)-4-oxo-4,5-dihydro-3H-1-thia-3,5,8-triazaacenaphthylene-2-carboxamide], the “BTK_I_binding pIC50” value is recorded as 7.1.

With `CNCC(=O)N1CCC[C@@H](NC(=O)c2sc3nccc4c3c2NC(=O)N4c2ccc(Oc3ccccc3)cc2C)C1` (single isomer, unassigned) [Example 183, (R)-5-(*S)-(2-Methyl-4-phenoxyphenyl)-N-(1-(2-(methylamino)acetyl)piperidin-3-yl)-4-oxo-4,5-dihydro-3H-1-thia-3,5,8-triazaacenaphthylene-2-carboxamide], the “BTK_I_binding pIC50” value stood at 7.5.

Regarding `CCC(=O)N1CCC[C@@H](NC(=O)c2sc3nccc4c3c2NC(=O)N4c2ccc(Oc3ccccc3)cc2C)C1` (single isomer, unassigned) [Example 184, (R)-5-(*S)-(2-Methyl-4-phenoxyphenyl)-4-oxo-N-(1-propionylpiperidin-3-yl)-4,5-dihydro-3H-1-thia-3,5,8-triazaacenaphthylene-2-carboxamide], the “BTK_I_binding pIC50” value is on record as 7.4.

`CNCC(=O)N1CCC[C@@H](NC(=O)c2sc3nccc4c3c2NC(=O)N4c2ccc(Oc3ccccc3)cc2C)C1` (single isomer, unassigned) [Example 253, (R)-5-(*R)-(2-Methyl-4-phenoxyphenyl)-N-(1-(2-(methylamino)acetyl)piperidin-3-yl)-4-oxo-4,5-dihydro-3H-1-thia-3,5,8-triazaacenaphthylene-2-carboxamide]: the “BTK_I_binding pIC50” value was found to be 6.2.
